Legend:
CDK2 [1] = biological target: T1, CDK2 (Homo sapiens, UniProt P24941); test: Inhibition of CDK2: phospho-Rb (S807/811) HTRF measurement in OVCAR3 cells, 24 h; assay type: cell-based; details: 24 h compound treatment, read-out: pRB_OVCAR3_24h
T1 construct: High-Throughput Measurement of Cellular Endogenous CDK2; endogenous in cells; host or cells: OVCAR3
How it was run: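 OVCAR3 cells, seeded overnight, were exposed to compounds at 0.3 to 10,000 nM for 24 h, then lysed. Rb S807/811 phosphorylation read by HTRF (665/620 nm ratio) after 4 h detection at room temperature; data normalized to DMSO and IC50 from four-parameter logistic fit.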

CDK2 [2] = biological target: T1, CDK2; test: High-throughput HTRF measurement of cellular endogenous CDK2 level (degradation, DC50/Dmax) in OVCAR3 cells, 6 h; assay type: cell-based; details: 6 h compound treatment, HTRF total CDK2, read-out: DC50_OVCAR3_6h
How it was run: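 OVCAR3 cells were treated overnight after seeding with compounds at 0.03–1,000 nM for 6 h, then lysed. Total CDK2 was quantified by HTRF (d2- and Eu-cryptate anti-CDK2 antibodies, […] ratio) after overnight incubation at room temperature. Data normalized to DMSO (0%) and lysis buffer (100% degradation); DC50 from four-parameter logistic fit.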

| IC50 (CDK2 [1]) [nM] | DC50 (CDK2 [2]) [nM] | SMILES |
| --- | --- | --- |
| 100 to 500 | 10 to 100 | Cn1nc(N2CCC(=O)NC2=O)c2ccc(C3CCN(CC#Cc4cccc(S(=O)(=O)N5CCC(Nc6ncc(Cl)cn6)CC5)c4)CC3)cc21 [Example 226, 1-(6-(1-(3-(3-((4-((5-chloropyrimidin-2-yl)amino)piperidin-1-yl)sulfonyl)phenyl)prop-2-yn-1-yl)piperidin-4-yl)-1-methyl-1H-indazol-3-yl)dihydropyrimidine-2,4(1H,3H)-dione] |
| 1 to 100 | 10 to 100 | Cn1nc(N2CCC(=O)NC2=O)c2ccc(C3CCN(CC4CCN(c5cccc(S(=O)(=O)N6CCC(Nc7ncc(OC(F)(F)F)cn7)CC6)c5)CC4)CC3)cc21 [Example 115, 1-(1-methyl-6-(1-((1-(3-((4-((5-(trifluoro-methoxy)pyrimidin-2-yl)amino)piperidin-1-yl)sulfonyl)phenyl)piperidin-4-yl)methyl)piperidin-4-yl)-1H-indazol-3-yl)dihydropyrimidine-2,4(1H,3H)-dione] |
| 1 to 100 | 1 to 10 | Cn1c(=O)n(C2CCC(=O)NC2=O)c2cccc(N3CCN(CC4CCN(c5cc(S(=O)(=O)N6CCC(Nc7ncc(Cl)cn7)CC6)ccc5C#N)CC4)CC3)c21 (stereo not shown) [Example 203, 4-((4-((5-chloropyrimidin-2-yl)amino)piperidin-1-yl)sulfonyl)-2-(4-((4-(1-(2,6-dioxopiperidin-3-yl)-3-methyl-2-oxo-2,3-dihydro-1H-benzo[d]imidazol-4-yl)piperazin-1-yl)methyl)piperidin-1-yl)benzonitrile] |
| 100 to 500 | 10 to 100 | Cn1nc(N2CCC(=O)NC2=O)c2ccc(C3CCN(CC4CCN(c5cc(F)cc(S(=O)(=O)N6CCC(Nc7ncc(OC(F)F)cn7)CC6)c5)CC4)CC3)cc21 [Example 175, 1-(6-(1-((1-(3-((4-((5-(difluoromethoxy)pyrimidin-2-yl)amino)piperidin-1-yl)sulfonyl)-5-fluorophenyl)piperidin-4-yl)methyl)piperidin-4-yl)-1-methyl-1H-indazol-3-yl)dihydropyrimidine-2,4(1H,3H)-dione] |
| 1 to 100 | 1 to 10 | Cn1c(=O)n(C2CCC(=O)NC2=O)c2cccc(C3CCN(Cc4cccc(S(=O)(=O)N5CCC(Nc6ncc(C(F)(F)F)cn6)CC5)c4)CC3)c21 (stereo not shown) [Example 83, 3-(3-methyl-2-oxo-4-(1-(3-((4-((5-(trifluoromethyl)pyrimidin-2-yl)amino)piperidin-1-yl)sulfonyl)benzyl)-piperidin-4-yl)-2,3-dihydro-1H-benzo[d]imidazol-1-yl)piperidine-2,6-dione] |
| 1 to 100 | 10 to 100 | Cn1c(=O)n(C2CCC(=O)NC2=O)c2cccc(C3CCN(CC4CCN(c5cc(S(=O)(=O)N6CCC(Nc7ncc(Cl)cn7)CC6)ccc5C#N)CC4)CC3)c21 (stereo not shown) [Example 151, 4-((4-((5-chloropyrimidin-2-yl)amino)piperidin-1-yl)sulfonyl)-2-(4-((4-(1-(2,6-dioxopiperidin-3-yl)-3-methyl-2-oxo-2,3-dihydro-1H-benzo[d]imidazol-4-yl)piperidin-1-yl)methyl)piperidin-1-yl)benzonitrile] |
| 1 to 100 | 1 to 10 | O=C1CCC(n2c(=O)oc3c(C4CCN(CC5CCN(c6cccc(S(=O)(=O)N7CCC(Nc8ncc(C(F)(F)F)cn8)CC7)c6)CC5)CC4)cccc32)C(=O)N1 (stereo not shown) [Example 201, 3-(2-oxo-7-(1-((1-(3-((4-((5-(trifluoromethyl)pyrimidin-2-yl)amino)piperidin-1-yl)sulfonyl)phenyl)piperidin-4-yl)methyl)piperidin-4-yl)benzo[d]oxazol-3(2H)-yl)piperidine-2,6-dione] |
| 1 to 100 | 10 to 100 | CC(Cc1cccc(S(=O)(=O)N2CCC(Nc3ncc(Cl)cn3)CC2)c1)CN1CCC(c2ccc3c(N4CCC(=O)NC4=O)nn(C)c3c2)CC1 (stereo not shown) [Example 53, 1-(6-(1-(3-(3-((4-((5-chloropyrimidin-2-yl)amino)piperidin-1-yl)sulfonyl)phenyl)-2-methylpropyl)piperidin-4-yl)-1-methyl-1H-indazol-3-yl)dihydropyrimidine-2,4(1H,3H)-dione] |
| 1 to 100 | 10 to 100 | Cn1nc(N2CCC(=O)NC2=O)c2ccc(C3CCN(CC4CN(c5cccc(S(=O)(=O)N6CCC(Nc7ncc(C(F)(F)F)cn7)CC6)c5)C4)CC3)cc21 [Example 108, 1-(1-methyl-6-(1-((1-(3-((4-((5-(trifluoromethyl)pyrimidin-2-yl)amino)-piperidin-1-yl)sulfonyl)phenyl)azetidin-3-yl)methyl)piperidin-4-yl)-1H-indazol-3-yl)dihydropyrimidine-2,4(1H,3H)-dione] |
| 1 to 100 | 1 to 10 | O=C1CCN(c2noc3cc(C4CCN(CC5CCN(c6cccc(S(=O)(=O)N7CCC(Nc8ncc(C(F)(F)F)cn8)CC7)c6)CC5)CC4)ccc23)C(=O)N1 [Example 222, 1-(6-(1-((1-(3-((4-((5-(trifluoromethyl)pyrimidin-2-yl)amino)piperidin-1-yl)sulfonyl)phenyl)piperidin-4-yl)methyl)piperidin-4-yl)benzo[d]isoxazol-3-yl)dihydropyrimidine-2,4(1H,3H)-dione] |
| 1 to 100 | 1 to 10 | Cn1nc(N2CCC(=O)NC2=O)c2ccc(C3CCN(CC4CCN(c5cccc(S(=O)(=O)N6CC[C@H](Nc7ncc(Cl)cn7)[C@H](F)C6)c5)CC4)CC3)cc21 (racemic) [Example 202, Rac-1-(6-(1-((1-(3-(((3R,4S)-4-((5-chloropyrimidin-2-yl)amino)-3-fluoropiperidin-1-yl)sulfonyl)phenyl)piperidin-4-yl)methyl)piperidin-4-yl)-1-methyl-1H-indazol-3-yl)dihydropyrimidine-2,4(1H,3H)-dione] |
| 1 to 100 | 1 to 10 | CC(C)c1cnc(NC2CCN(S(=O)(=O)c3cccc(N4CCC(CN5CCC(c6ccc7c(N8CCC(=O)NC8=O)nn(C)c7c6)CC5)CC4)c3)CC2)nc1 [Example 244, 1-(6-(1-((1-(3-((4-((5-isopropylpyrimidin-2-yl)amino)piperidin-1-yl)sulfonyl)phenyl)piperidin-4-yl)methyl)piperidin-4-yl)-1-methyl-1H-indazol-3-yl)dihydropyrimidine-2,4(1H,3H)-dione] |
| 100 to 500 | 100 to 1000 | Cc1ncsc1-c1ccc([C@H](C)NC(=O)[C@@H]2C[C@@H](O)CN2C(=O)[C@H](NC(=O)C2CCN(Cc3cccc(S(=O)(=O)N4CCC(Nc5ncc(C(F)(F)F)cn5)CC4)c3)CC2)C(C)(C)C)cc1 [Example 7, N-((R)-1-((2S,4R)-4-hydroxy-2-(((S)-1-(4-(4-methylthiazol-5-yl)phenyl)ethyl)-carbamoyl)pyrrolidin-1-yl)-3,3-dimethyl-1-oxobutan-2-yl)-1-(3-((4-((5-(trifluoro-methyl)pyrimidin-2-yl)amino)piperidin-1-yl)sulfonyl)benzyl) piperidine-4-carboxamide] |
| 1 to 100 | 1 to 10 | Cn1nc(N2CCC(=O)NC2=O)c2ccc(C3CCN(Cc4cccc(S(=O)(=O)N5CCC(Nc6ncc(OC(F)F)cn6)CC5)c4)CC3)c(F)c21 [Example 93, 1-(6-(1-(3-((4-((5-(difluoromethoxy)-pyrimidin-2-yl)amino)piperidin-1-yl)sulfonyl)benzyl)piperidin-4-yl)-7-fluoro-1-methyl-1H-indazol-3-yl)dihydropyrimidine-2,4(1H,3H)-dione] |

Reference: patent publication US20260167623A1 (NIKANG THERAPEUTICS, INC., priority 2022, published 2026)
